Earlier results as cited in US20070071819A1, “MULTIPLE UNIT MODIFIED RELEASE COMPOSITIONS OF CARBAMAZEPINE AND PROCESS FOR THEIR PREPARATION” (priority 2005, published 2007).

Conditions: below 4 μg/ml ineffective; greater than 12 μg/ml increased chances of side-effects

## NC(=O)N1c2ccccc2C=Cc2ccccc21 [carbamazepine, 5H-dibenz-[b,f]azepine-5-carboxamide]
  therapeutic blood serum concentration range: 4 to 12 µg/mL
